Data published in patent US20250092383A1, “COMPOUNDS AND METHODS FOR FBXO22-MEDIATED PROTEIN DEGRADATION” (Northwestern University, priority 2023, published 2025).
Values belong to the compound of their own block, whether it stands above or below them. Peptide text beside a SMILES is read from it. * marks the point of attachment. Cbz = O=C(OCc1ccccc1)*

Tests used:
Type in all cases: cell-based
[1] = target: T1, BRD4 (Homo sapiens, UniProt O60885); assay: Global proteomic analysis in A549 wild-type and FBXO22-knockout cells treated with 22-JQ1; details: 2 μM, 24 h
T1 construct: endogenous in cells; host or cells: A549 wild type and FBXO22 knockout
Description: (§1) FIGS. 5A-5E show harnessing FBXO22 for the degradation of BRD4 and EML4-ALK. […] The bar graph represents quantification of the BRD4/β-actin protein content. Data are presented as the mean values (n=2 biological independent samples). […] Data are presented as the mean values (n=2 biological independent samples). […] The bar graph represents quantification of the EML4-ALK/β-actin protein content. Data are presented as the mean values (n=2 biological independent samples).
(§2) Next, the potential of FBXO22 to facilitate the degradation of additional proteins was investigated. Bromodomain-containing protein 4 (BRD4) was chosen due to its notable physiological role and the availability of a selective ligand, JQ1. The compound, 22-JQ1 (3) was synthesized by coupling the FBXO22 binding moiety to JQ1 (FIG. 5a). […] Subsequently, a global proteomic analysis was performed in A549 wild-type and FBXO22-knockout cells treated with 22-JQ1. […] 22-TAE incorporates the FBXO22 binding moiety coupled with a defined anaplastic lymphoma kinase (ALK) ligand (FIG. 5d). FBXO22 knockout was generated in H2228, a non-small cell lung cancer cell line expressing the echinoderm microtubule-associated protein-like 4 (EML4)-ALK fusion protein.

[2] = target: T1, BRD4; assay: BRD4 degradation in A549 wild-type and FBXO22-knockout cells (western blot); details: 1 and 2 μM, 24 h
Description: as §1, §2

[3] = target: T2, EML4-ALK fusion protein (Homo sapiens, UniProt Q8NEZ5+Q9HC35+Q9UM73); assay: EML4-ALK degradation in H2228 wild-type and FBXO22-knockout cells; details: 1 and 2 μM, 24 h
T2 construct: endogenous in cells; host or cells: H2228 wild type and FBXO22 knockout
Description: as §1, §2

[4] = target: FKBP12 (Homo sapiens, UniProt P62942); assay: Western blot of FLAG-FKBP12 degradation in HEK293T cells expressing HA-FBXO22; set-up: expressed in transfected cells; host or cells: HEK293T; details: MG132 (1 μM), MLN4924 (1 μM), SLF (25 μM)
Description: The bar graph represents quantification of the FLAG-FKBP12/HSP90 protein content. Data are presented as the mean values±s.e.m. […] HEK293T cells expressing HA-FBXO22 were treated with 0.025-15 μM 22-SLF for 8 h. The graph represents quantification of the FLAG-FKBP12/HSP90 protein content. Data are presented as the mean values (n=2 biological independent samples). […] The bar graph represents quantification of the FLAG-FKBP12/HSP90 protein content. KO, knockout; WT, wild type. Data are presented as the mean values (n=2 biological independent samples). […] The bar graph represents quantification of the FLAG-FKBP12/HSP90 protein content. Data are presented as the mean values±s.e.m. […] The result is representative of two independent experiments with similar results. WCL, whole-cell lysate; IP, immunoprecipitate.
(§3) FIGS. 3A-3H show FBXO22 C227 and C228 are involved in 22-SLF-mediated degradation of FKBP12. […] Among 5,650 quantified IA-DTB-modified peptides, four cysteines were identified on FBXO22 (C83, C117, C228, and C365). […] Data are presented as the mean values (n=2 biological independent samples for DMSO treatment; n=3 biological independent samples for 22-SLF Treatment). […] The bag graph represents quantification of the FLAG-FKBP12/HSP90 protein content. Data are presented as mean values (n=2 biological independent samples). […] The bar graph represents quantification of the FLAG-FKBP12/HSP90 protein content. Data are presented as the mean values (n=2 biological independent samples).
FIG. 11A-11B show the acrylamide variant of 22-SLF, 22a-SLF, induced the degradation of FKBP12. […] HEK293T cells expressing HA-FBXO22 were treated with 0.5, 1, or 2 μM of 22-SLF or 22a-SLF for 8 hours. The graph represents quantification of the FLAG-FKBP12/HSP90 protein content. Data are presented as mean values (n=2 biological independent samples).
Next, Western blot analysis was used to measure the degradation of FKBP12 induced by 22-SLF. To achieve this, FLAG-tagged FKBP12 and HA-tagged FBXO22 were stably overexpressed in HEK293T cells, followed by subjecting the cells to varying concentrations of 22-SLF. […] Moreover, 22-SLF's effect on FLAG-FKBP12 degradation was concentration-dependent (FIG. 2a). […] The rescue enabled by MLN4924 indicates the involvement of a Cullin-RING ligase (CRL) in the degradation process. This is consistent with FBXO22 belonging to SKP1-CUL1-F-box protein (SCF) ubiquitin ligase complexes, a subfamily of CRL. […] To provide a more comprehensive insight into 22-SLF-induced FKBP12 degradation, a dose-dependent degradation experiment using 11 concentrations of 22-SLF ranging from […] to 15 μM was conducted. This experiment enabled determination of two parameters, the Dmax value, which reached 89%, and the half-maximal degradation concentration (DC50) value, which measured at 0.5 μM (FIG. 2B). […] Collectively, this array of data supports the canonical mechanism of ligand-induced protein degradation. In this mechanism, 22-SLF orchestrates the recruitment of FBXO22 to FKBP12, culminating in the proteasomal degradation of FKBP12.
To identify the cysteine residue(s) in FBXO22 engaged with 22-SLF, HA-FBXO22-expressing HEK293T cells were treated with either DMSO or 22-SLF (2 μM, 2 hours). Using competitive cysteine-directed activity-based protein profiling (ABPP), a chemical proteomics for the measurement of target engagement, the degree of blockade of iodoacetamide-desthiobiotin (IA-DTB)-modified cysteines on FBXO22 was quantified. From a pool of 5,650 quantified IA-DTB-modified peptides, four cysteines on FBXO22 (C83, C117, C228, and C365) (FIG. 3a) were identified, with approximately 20% of FBXO22 C228 being blocked by 22-SLF treatment (FIG. 3b), indicating the potential interaction with this cysteine by 22-SLF. Consequently, C228 was mutated to alanine and HA-FBXO22 C228A-expressing HEK293T cells were generated (FIG. 3c). […]

[5] = target: T3, FKBP12 (mouse FBXO22) (UniProt P62942+Q78JE5); assay: FKBP12 degradation in HEK293T cells expressing mouse FBXO22; details: HEK293T cells expressing mouse FBXO22 wildtype
T3 construct: expressed in transfected cells; host or cells: HEK293T
Description: as §3
Intriguingly, the peptide sequence containing the two consecutive cysteines (C227 and C228) is identical between human and mouse (FIG. 3f). To explore whether mouse FBXO22 can facilitate 22-SLF-induced FKBP12 degradation and if the conserved cysteines (C226 and C227 in mouse FBXO22) are pivotal, HEK293T cells expressing mouse FBXO22 wildtype, C226A, C227A, and C226AC227A, were generated.

T3 sequence (P62942 2-108): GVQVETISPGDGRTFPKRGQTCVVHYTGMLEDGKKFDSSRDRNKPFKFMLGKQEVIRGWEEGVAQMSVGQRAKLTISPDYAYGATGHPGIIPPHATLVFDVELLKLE
T3 sequence (Q78JE5 whole entry): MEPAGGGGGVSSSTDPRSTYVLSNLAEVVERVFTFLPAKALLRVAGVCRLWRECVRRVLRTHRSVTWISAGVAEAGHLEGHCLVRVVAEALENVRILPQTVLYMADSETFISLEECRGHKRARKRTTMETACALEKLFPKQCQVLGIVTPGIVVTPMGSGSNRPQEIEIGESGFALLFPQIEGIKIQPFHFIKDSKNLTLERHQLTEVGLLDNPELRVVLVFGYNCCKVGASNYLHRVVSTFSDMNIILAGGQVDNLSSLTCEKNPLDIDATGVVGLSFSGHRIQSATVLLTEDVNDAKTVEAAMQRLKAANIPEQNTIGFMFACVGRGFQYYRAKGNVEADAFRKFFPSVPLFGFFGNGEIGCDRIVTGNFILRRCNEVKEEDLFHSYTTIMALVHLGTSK
T3 sequence (P63208 whole entry partner): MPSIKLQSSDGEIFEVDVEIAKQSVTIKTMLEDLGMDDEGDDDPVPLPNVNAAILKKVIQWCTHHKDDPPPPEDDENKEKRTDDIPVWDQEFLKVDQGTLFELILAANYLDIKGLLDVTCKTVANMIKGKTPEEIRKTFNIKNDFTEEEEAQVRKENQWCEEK
Chain of FKBP12 (P62942 whole entry): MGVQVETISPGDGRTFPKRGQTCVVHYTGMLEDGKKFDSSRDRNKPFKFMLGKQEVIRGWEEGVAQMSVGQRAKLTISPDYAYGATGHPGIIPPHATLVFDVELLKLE
T2 sequence (Q9HC35+Q9UM73 fused): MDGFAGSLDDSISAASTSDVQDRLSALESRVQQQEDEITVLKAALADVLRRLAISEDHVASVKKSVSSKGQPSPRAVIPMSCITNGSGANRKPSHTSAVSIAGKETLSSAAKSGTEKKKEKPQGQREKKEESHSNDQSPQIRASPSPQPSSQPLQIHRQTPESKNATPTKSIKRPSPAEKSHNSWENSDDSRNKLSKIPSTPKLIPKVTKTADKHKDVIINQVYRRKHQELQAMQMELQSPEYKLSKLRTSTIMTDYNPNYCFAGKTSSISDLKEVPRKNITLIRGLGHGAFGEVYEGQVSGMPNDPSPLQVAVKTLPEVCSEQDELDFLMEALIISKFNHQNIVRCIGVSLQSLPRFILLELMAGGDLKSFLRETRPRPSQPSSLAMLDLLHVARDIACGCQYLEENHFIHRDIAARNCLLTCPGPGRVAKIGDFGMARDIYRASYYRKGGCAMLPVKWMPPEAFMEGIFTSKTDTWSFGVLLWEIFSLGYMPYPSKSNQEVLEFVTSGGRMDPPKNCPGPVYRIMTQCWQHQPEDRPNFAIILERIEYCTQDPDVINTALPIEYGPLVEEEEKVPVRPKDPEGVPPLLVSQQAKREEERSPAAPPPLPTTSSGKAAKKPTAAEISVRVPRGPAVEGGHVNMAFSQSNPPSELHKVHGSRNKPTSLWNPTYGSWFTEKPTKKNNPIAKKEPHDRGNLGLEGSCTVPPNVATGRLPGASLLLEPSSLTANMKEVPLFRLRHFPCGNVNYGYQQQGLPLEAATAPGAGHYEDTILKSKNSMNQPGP
T2 sequence (Q8NEZ5 whole entry, the tested form may be a part): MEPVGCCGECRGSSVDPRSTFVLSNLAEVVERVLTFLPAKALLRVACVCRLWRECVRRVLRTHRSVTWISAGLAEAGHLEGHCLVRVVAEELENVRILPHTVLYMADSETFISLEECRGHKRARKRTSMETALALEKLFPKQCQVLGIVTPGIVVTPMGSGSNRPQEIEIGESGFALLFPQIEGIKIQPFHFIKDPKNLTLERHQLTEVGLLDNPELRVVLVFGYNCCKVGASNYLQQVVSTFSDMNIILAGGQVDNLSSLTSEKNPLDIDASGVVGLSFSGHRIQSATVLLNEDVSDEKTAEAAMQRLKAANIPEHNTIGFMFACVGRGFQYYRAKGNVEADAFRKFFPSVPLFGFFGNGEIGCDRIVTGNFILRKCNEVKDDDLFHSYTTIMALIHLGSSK
T2 sequence (P63208 2-163 partner limits assumed): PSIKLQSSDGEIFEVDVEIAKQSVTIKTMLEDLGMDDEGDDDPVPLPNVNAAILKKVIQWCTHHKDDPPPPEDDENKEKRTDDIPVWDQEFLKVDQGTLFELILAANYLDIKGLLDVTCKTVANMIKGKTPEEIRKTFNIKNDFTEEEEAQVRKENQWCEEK
T2 sequence (Q13616 whole entry partner, the tested form may be a part): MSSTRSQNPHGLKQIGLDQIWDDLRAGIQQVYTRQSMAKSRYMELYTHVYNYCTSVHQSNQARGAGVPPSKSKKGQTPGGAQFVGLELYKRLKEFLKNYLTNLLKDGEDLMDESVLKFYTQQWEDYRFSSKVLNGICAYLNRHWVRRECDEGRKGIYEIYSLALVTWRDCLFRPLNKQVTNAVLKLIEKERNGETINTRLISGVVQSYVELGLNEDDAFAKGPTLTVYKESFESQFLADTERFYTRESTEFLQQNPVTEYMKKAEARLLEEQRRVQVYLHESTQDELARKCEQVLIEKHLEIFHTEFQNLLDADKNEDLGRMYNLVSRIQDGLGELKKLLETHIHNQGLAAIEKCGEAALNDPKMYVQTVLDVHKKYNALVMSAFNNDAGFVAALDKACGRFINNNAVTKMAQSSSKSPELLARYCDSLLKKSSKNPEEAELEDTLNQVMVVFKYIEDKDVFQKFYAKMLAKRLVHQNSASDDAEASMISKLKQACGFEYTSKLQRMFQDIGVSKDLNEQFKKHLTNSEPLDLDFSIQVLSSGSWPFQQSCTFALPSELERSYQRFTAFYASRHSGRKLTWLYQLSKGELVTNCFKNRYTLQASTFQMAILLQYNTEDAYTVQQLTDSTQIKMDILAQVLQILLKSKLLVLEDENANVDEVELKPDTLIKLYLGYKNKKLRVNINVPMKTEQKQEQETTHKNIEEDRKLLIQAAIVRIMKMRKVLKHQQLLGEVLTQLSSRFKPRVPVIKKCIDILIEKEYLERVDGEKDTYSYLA
T2 sequence (P62877 whole entry partner, the tested form may be a part): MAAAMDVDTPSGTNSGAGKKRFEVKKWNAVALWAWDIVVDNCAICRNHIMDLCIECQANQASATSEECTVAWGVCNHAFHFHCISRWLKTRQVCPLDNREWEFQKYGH

- BRD4 degradation, A549 FBXO22 knockout cells [2]: abolished upon FBXO22 knockout
- BRD4 degradation, A549 wild-type cells [2]: promoted the degradation of BRD4
SMILES: Cc1sc2c(c1C)C(c1ccc(Cl)cc1)=N[C@@H](CC(=O)NCCCOCCOCCOCCCN(C(=O)CCl)C(C(=O)NCc1ccccc1)c1nc3ccccc3s1)c1nnc(C)n1-2 (stereo partly drawn) [22-JQ1]
- BRD4 degradation in global proteomics [1]: potent degradation of BRD4 in A549 wild-type but not FBXO22-knockout cells

- EML4-ALK degradation, FBXO22-knockout H2228 cells [3]: no such degradation was observed
SMILES: COc1cc(N2CCN(CCOCCOCCN(C(=O)CCl)C(C(=O)NCc3ccccc3)c3nc4ccccc4s3)CC2)ccc1Nc1ncc(Cl)c(Nc2ccccc2S(=O)(=O)C(C)C)n1 (stereo not drawn) [22-TAE]
- EML4-ALK degradation, H2228 wild-type cells [3]: induced the degradation of EML4-ALK fusion protein

- Blockade of 22-SLF-induced loss of FLAG-FKBP12 expression [4]: blocked
- Blockade of 22-SLF-induced FKBP12 degradation, mouse FBXO22 [5]: blocked
SMILES: NS(=O)(=O)OC[C@@H]1C[C@@H](n2ccc3c(N[C@H]4CCc5ccccc54)ncnc32)C[C@@H]1O [MLN4924, reference compound]

SMILES: CC(C)C[C@@H](C=O)NC(=O)[C@H](CC(C)C)NC(=O)[C@H](CC(C)C)NC(=O)OCc1ccccc1 [MG132, reference compound] (Cbz-Leu-Leu-Leu-aldehyde)
- Blockade of 22-SLF-induced loss of FLAG-FKBP12 expression [4]: blocked
- Blockade of 22-SLF-induced FKBP12 degradation, mouse FBXO22 [5]: blocked
